# According to ChEMBL document CHEMBL1201862, “PubChem BioAssay data set” (2004):
#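 These data come from cells grown in 96-well plates and exposed to compound for 48 hours at five concentrations. Abbreviation: GI50, concentration required for 50% inhibition of growth.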 The source made the active and inactive calls. Cut-off read from the data, not from the text of the source: active = GI50 up to about 1.1 µM and inactive = higher.
# Tests used:
# Assay in all cases: NCI-60 cell line screen, 48 h
# [1] = system: 786-0
# [2] = system: A498
# [3] = system: A549
# [4] = system: ACHN
# [5] = system: CAKI-1
# [6] = system: DLD-1
# [7] = system: DMS-114
# [8] = system: DMS-273
# [9] = system: EKVX
# [10] = system: HCC 2998
# [11] = system: HCT-116
# [12] = system: HCT-15
# [13] = system: HL-60
# [14] = system: HOP-62
# [15] = system: HT-29
# [16] = system: IGROV-1
# [17] = system: K562
# [18] = system: KM-20L2
# [19] = system: KM12
# [20] = system: LOX IMVI
# [21] = system: LXFL 529
# [22] = system: M14
# [23] = system: M19-MEL
# [24] = system: MOLT-4
# [25] = system: Malme-3M
# [26] = system: NCI-H226
# [27] = system: NCI-H460
# [28] = system: NCI-H522
# [29] = system: OVCAR-3
# [30] = system: OVCAR-4
# [31] = system: OVCAR-5
# [32] = system: OVCAR-8
# [33] = system: RPMI-8226
# [34] = system: RXF 393
# [35] = system: RXF 631
# [36] = system: SF-268
# [37] = system: SF-295
# [38] = system: SF-539
# [39] = system: SK-MEL-28
# [40] = system: SK-MEL-2
# [41] = system: SK-MEL-5
# [42] = system: SK-OV-3
# [43] = system: SN12C
# [44] = system: SNB-19
# [45] = system: SNB-75
# [46] = system: SR
# [47] = system: SW-620
# [48] = system: U-251
# [49] = system: UACC-257
# [50] = system: UACC-62
# [51] = system: UO-31
# [52] = system: CCRF-CEM
# [53] = system: COLO 205
# [54] = system: HOP-18
# [55] = system: HOP-92
# [56] = system: MCF7
# [57] = system: NCI-H23
# [58] = system: NCI/ADR-RES
# [59] = system: SNB-78
# [60] = system: XF498
smiles,measurement,setting,value
CCOC(=O)NC(=O)c1cn(C2OC(CO)C(O)C2O)c(=O)[nH]c1=O (stereo not given),GI50,[1],> 100 µM (inactive)
same,GI50,[2],> 100 µM (inactive)
same,GI50,[3],> 100 µM (inactive)
same,GI50,[4],> 100 µM (inactive)
same,GI50,[5],> 100 µM (inactive)
same,GI50,[6],> 100 µM (inactive)
same,GI50,[7],> 100 µM (inactive)
same,GI50,[8],> 100 µM (inactive)
same,GI50,[9],> 100 µM (inactive)
same,GI50,[10],> 100 µM (inactive)
same,GI50,[11],> 100 µM (inactive)
same,GI50,[12],> 100 µM
same,GI50,[13],> 100 µM (inactive)
same,GI50,[14],> 100 µM (inactive)
same,GI50,[15],> 100 µM (inactive)
same,GI50,[16],> 100 µM (inactive)
same,GI50,[17],> 100 µM (inactive)
same,GI50,[18],> 100 µM (inactive)
same,GI50,[19],> 100 µM (inactive)
same,GI50,[20],> 100 µM (inactive)
same,GI50,[21],> 100 µM (inactive)
same,GI50,[22],> 100 µM (inactive)
same,GI50,[23],> 100 µM (inactive)
same,GI50,[24],> 100 µM (inactive)
same,GI50,[25],> 100 µM (inactive)
same,GI50,[26],> 100 µM (inactive)
same,GI50,[27],> 100 µM (inactive)
same,GI50,[28],> 100 µM (inactive)
same,GI50,[29],> 100 µM (inactive)
same,GI50,[30],> 100 µM (inactive)
same,GI50,[31],> 100 µM (inactive)
same,GI50,[32],> 100 µM (inactive)
same,GI50,[33],> 100 µM (inactive)
same,GI50,[34],> 100 µM (inactive)
same,GI50,[35],> 100 µM (inactive)
same,GI50,[36],> 100 µM (inactive)
same,GI50,[37],> 100 µM (inactive)
same,GI50,[38],> 100 µM (inactive)
same,GI50,[39],> 100 µM (inactive)
same,GI50,[40],> 100 µM (inactive)
same,GI50,[41],> 100 µM (inactive)
same,GI50,[42],> 100 µM (inactive)
same,GI50,[43],> 100 µM (inactive)
same,GI50,[44],> 100 µM (inactive)
same,GI50,[45],> 100 µM (inactive)
same,GI50,[46],> 100 µM (inactive)
same,GI50,[47],> 100 µM (inactive)
same,GI50,[48],> 100 µM (inactive)
same,GI50,[49],> 100 µM (inactive)
same,GI50,[50],> 100 µM (inactive)
same,GI50,[51],> 100 µM (inactive)
CN(C)CCOc1cc2c(c3ccccc13)-c1ccccc1C2O (stereo not given),GI50,[2],15 µM (inactive)
same,GI50,[3],15.5 µM (inactive)
same,GI50,[5],12.9 µM (inactive)
same,GI50,[52],14.1 µM (inactive)
same,GI50,[53],12.5 µM (inactive)
same,GI50,[6],15.8 µM (inactive)
same,GI50,[7],11.7 µM (inactive)
same,GI50,[8],15 µM (inactive)
same,GI50,[9],14.8 µM (inactive)
same,GI50,[10],14.4 µM (inactive)
same,GI50,[11],13.2 µM (inactive)
same,GI50,[12],12.4 µM
same,GI50,[13],11.6 µM (inactive)
same,GI50,[54],14.8 µM (inactive)
same,GI50,[14],14.9 µM (inactive)
same,GI50,[55],6.56 µM (inactive)
same,GI50,[15],13.5 µM (inactive)
same,GI50,[16],16.7 µM (inactive)
same,GI50,[17],18.6 µM (inactive)
same,GI50,[18],15.6 µM (inactive)
same,GI50,[19],14.8 µM (inactive)
same,GI50,[20],10.2 µM (inactive)
same,GI50,[23],16.6 µM (inactive)
same,GI50,[56],12.8 µM (inactive)
same,GI50,[24],3.33 µM (inactive)
same,GI50,[25],18.2 µM (inactive)
same,GI50,[26],13.7 µM (inactive)
same,GI50,[57],16.9 µM (inactive)
same,GI50,[27],7.21 µM (inactive)
same,GI50,[28],16 µM (inactive)
same,GI50,[58],3.49 µM (inactive)
same,GI50,[29],15.6 µM (inactive)
same,GI50,[30],17.9 µM (inactive)
same,GI50,[31],13 µM (inactive)
same,GI50,[32],11.7 µM (inactive)
same,GI50,[33],12.6 µM (inactive)
same,GI50,[34],1.47 µM (inactive)
same,GI50,[36],14.5 µM (inactive)
same,GI50,[37],13.5 µM (inactive)
same,GI50,[38],14.3 µM (inactive)
same,GI50,[39],16 µM (inactive)
same,GI50,[40],17.2 µM (inactive)
same,GI50,[41],15.5 µM (inactive)
same,GI50,[42],16.1 µM (inactive)
same,GI50,[43],13.4 µM (inactive)
same,GI50,[44],8.28 µM (inactive)
same,GI50,[45],10.3 µM (inactive)
same,GI50,[59],15.9 µM (inactive)
same,GI50,[47],12.4 µM (inactive)
same,GI50,[48],15.5 µM (inactive)
same,GI50,[49],15.5 µM (inactive)
same,GI50,[50],17.2 µM (inactive)
same,GI50,[51],12.5 µM (inactive)
same,GI50,[60],12.9 µM (inactive)
